How the values were obtained:
M. javanica [1] = assay: Nematicidal activity of fatty acid methyl ester emulsions, nematode spectrum (Table 6); type: in vivo, Meloidogyne javanica; conditions: M. javanica 2nd stage juveniles, head 24 hr, b171 48 hours
Description: (§1) Briefly, the indicated fatty acid emulsions were added to nematodes in wells of a 24-well plate and rapidly mixed by swirling. […] Results shown are mean % values obtained from multiple independent experiments
(§2) The Caenorhabditis elegans were mixed stage populations. Similar effects were seen on several other free-living nematode species. The Parastrongyloides trichosuri (parasite of Australian bushtail possum) were dauer-like infective 3rd stage larva. Similar effects are also seen against free-living stages. The Meloidogyne incognita and Meloidogyne javanica (root knot nematode) were 2nd stage juveniles (dauer-like infective stage). The Heterodera glycines (soybean cyst nematode) were 2nd stage juveniles (dauer-like infective stage). Finally, the Pratylenchus scribneri (corn lesion nematode) were mixed stage populations.

H. glycines = assay: as above; type: in vivo, Heterodera glycines; conditions: H. glycines 2nd stage juveniles, head 24 hr, b171 48 hours
Description: as §1, §2

M. incognita [2] = assay: as above; type: in vivo, Meloidogyne incognita; conditions: M. incognita 2nd stage juveniles, head 24 hr, b171 48 hours
Description: as §1, §2

C. elegans [3] = assay: as above; type: in vivo, Caenorhabditis elegans; conditions: C. elegans mixed stage
Description: as §1, §2

C. elegans [4] = assay: Nematicidal activity of fatty acid methyl ester emulsions against C. elegans (Table 2)
P. trichosuri = assay: Nematicidal activity of fatty acid methyl ester emulsions, nematode spectrum (Table 6); type: in vivo, Parastrongyloides trichosuri; conditions: P. trichosuri infective 3rd stage larva
Description: as §1, §2

[5] = system: wide spectrum of divergent nematode genera; assay: Summary of Table 6: free-living, animal parasitic and plant parasitic nematodes; type: in vivo; conditions: concentrations of 0.1% and 0.01%
Description: as §1

P. scribneri = assay: Nematicidal activity of fatty acid methyl ester emulsions, nematode spectrum (Table 6); type: in vivo, Pratylenchus scribneri; conditions: P. scribneri mixed stage
Description: as §1, §2

C. elegans dauers = assay: Nematicidal activity of methyl ester, salt and free fatty acid emulsions vs. C. elegans dauers (Table 4); type: in vivo, Caenorhabditis elegans
[6] = system: everted hamster jejunal and ileal segments; conditions: Gaginella et al. (1975); cited from earlier work
C. elegans [7] = assay: Nematicidal activity of methyl ester, salt and free fatty acid emulsions vs. C. elegans N2s (Table 3); type: in vivo, Caenorhabditis elegans
Text: Nematicidal Activity of Single Fatty Acid Methyl Ester, Salt and Free Fatty Acid Emulsions Against Caenorhabditis elegans […] and Dauers

tomato seedlings = assay: Phytotoxicity evaluation of fatty acid methyl esters on tomato seedlings; type: in vivo; conditions: 250 μl of 1% emulsion at stem-media interface of two-week seedlings
Description: Sterilized tomato seeds were germinated in magenta jars containing Gamborg's agar media. After two weeks of growth, seedlings were treated with 250 μl of 1% fatty acid methyl ester emulsion (nonanoic acid, ricinoleic acid, ricinelaidic acid, oleic acid, or a control emulsion lacking any fatty acid), applied directly to the stem-media interface. Tomato seedlings were scored at various times after application of emulsions.

M. javanica [8] = assay: Nematicidal activity of fatty acid methyl ester emulsions against root knot nematode J2 larvae (Table 5); type: in vivo; conditions: 0.1% emulsion; 48 hours incubation, counted about 24 hours after transfer to plates
Description: (§3) M. incognita and M. javanica were prepared from tomato roots. The roots were bleached and the debris was separated from the J2 larvae and eggs by filtration followed by sucrose density gradient centrifugation. Eggs were hatched over 4 days at 15° C. and the J2 larvae were collected by passage though a filter, followed by centrifugation.
(§4) Nematodes and emulsions were incubated with shaking at room temperature for 48 hours. The contents of each well were transferred to a small spot on individual NGM plates lacking bacteria. About 24 hours after the transfer to plates, worms on and off the inoculation spot were counted as not viable or viable, respectively. Worms were considered viable if they had crawled away from the inoculation spot, or if they were moving. Worms were considered non-viable if they remained at the inoculation spot.

M. incognita [9] = assay: as above; type: in vivo; conditions: 0.1% emulsion; 48 hours incubation, counted about 24 hours after transfer to plates
Description: as §3, §4

[10] = system: isolated intestinal epithelial cells; conditions: Gaginella et al. (1977); cited from earlier work
Caenorhabditis elegans = conditions: 100 μg/mL over 24 hours; Momin & Nair (2002); cited from earlier work
Panagrellus redivivus = conditions: 100 μg/mL over 24 hours; Momin & Nair (2002); cited from earlier work
L4 and adult C. elegans = conditions: Stadler and coworkers; cited from earlier work

CCCCCC[C@@H](O)C/C=C\CCCCCCCC(=O)OC [Ricinoleic Acid (C18-methyl ester), ricinoleic acid methyl ester]
% Worm Death (24 hr) (M. javanica [1]; 0.01% solution): 5% | % Worm Death (24 hr) (M. javanica [1]; 0.1% solution): 60% | % Worm Death (24 hr) (H. glycines; 0.001% solution): ~40% | % Worm Death (24 hr) (H. glycines; 0.01% solution): ~60% | % Worm Death (24 hr) (H. glycines; 0.1% solution): ~60% | % Worm Death (24 hr) (M. incognita [2]; 0.01% solution): 83% | % Worm Death (24 hr) (M. incognita [2]; 0.1% solution): 95% | % Worm Death (24 hr) (C. elegans [3]; 0.001% solution): 30% | % Worm Death (24 hr) (C. elegans [3]; 0.01% solution): 50% | % Worm Death (24 hr) (C. elegans [3]; 0.1% solution): 90% | Percentage of Worm Death 1 hr (C. elegans [4]; 0.003% emulsion): 40% | Percentage of Worm Death 6 hr (C. elegans [4]; 0.003% emulsion): 40% | Percentage of Worm Death 24 hr (C. elegans [4]; 0.003% emulsion): 40% | Percentage of Worm Death 1 hr (C. elegans [4]; 0.1% emulsion): 80% | Percentage of Worm Death 6 hr (C. elegans [4]; 0.1% emulsion): 80% | Percentage of Worm Death 24 hr (C. elegans [4]; 0.1% emulsion): 90% | nematicidal activity (C. elegans [4]; concentration of 0.1%): strongly nematicidal | time before strong killing effects are apparent (C. elegans [4]; emulsion, Table 2): up to 30 minutes | % Worm Death (24 hr) (P. trichosuri; 0.01% solution): ~60% | % Worm Death (24 hr) (P. trichosuri; 0.1% solution): ~50% | nematicidal activity [5]: strongly nematicidal | % Worm Death (24 hr) (P. scribneri; 0.01% solution): <20% | % Worm Death (24 hr) (P. scribneri; 0.1% solution): <20% | worm death (C. elegans dauers; 0.01% emulsion): 30% | worm death (C. elegans dauers; 0.1% emulsion): 70% | effect on water and electrolyte absorption [6]: ineffective | worm death (C. elegans [7]; 0.001% emulsion): 20% | worm death (C. elegans [7]; 0.01% emulsion): 40% | worm death (C. elegans [7]; 0.1% emulsion): 90% | phytotoxic effects on tomato seedlings (tomato seedlings): low phytotoxicity | M. javanica (% not viable) (M. javanica [8]): 60% | M. incognita (% not viable) (M. incognita [9]): 95%

CCCCCC[C@@H](O)C/C=C\CCCCCCCC(=O)O [R free acid, ricinoleic acid]
cytotoxicity [10]: cytotoxic | worm death (C. elegans dauers; 0.01% emulsion): 75% | worm death (C. elegans dauers; 0.1% emulsion): 90% | effect on water and electrolyte absorption [6]: inhibitory effect | worm death (C. elegans [7]; 0.001% emulsion): <5% | worm death (C. elegans [7]; 0.01% emulsion): 50% | worm death (C. elegans [7]; 0.1% emulsion): 95%

CCCCCCCC/C=C\CCCCCCCC(=O)O [oleic acid]
nematicidal activity (Caenorhabditis elegans): not nematicidal | nematicidal activity (Panagrellus redivivus): not nematicidal | LD50 (L4 and adult C. elegans): 25 µg/mL | LD90 (L4 and adult C. elegans): 100 µg/mL

From patent US7919680B2, “Nucleic acids encoding anthelmintic agents and plants made therefrom” (Divergence, Inc., priority 2004, dated 2011)
